Results: PMC5242521 (PLoS ONE, 2017)
Values joined by “and” are separate entries in the source; they are usually repeats but may differ in a detail not shown here. Equal entries are not always repeated. “Also recorded” adds a separate entry of the source.

Columns and labels:
P-gp [1] = details: ref [78]; cited from earlier work
[2] = parameters: method as in PMID 12708229; details: human subjects environmentally exposed; ref [70]; cited from earlier work
P-gp [3] = molecular target: P-gp (Homo sapiens, UniProt P08183); assay: P-gp activity: rhodamine 123 accumulation in MCF7R cells; details: pyrethroid 100 μM
Procedure: (§1) The effects of pyrethroids on activity of ABC and SLC transporters were determined through measuring cellular accumulation or retention of fluorescent or radiolabeled reference substrates for transporters, in the presence or absence of reference inhibitors, as previously described. The nature of cells and reference substrates and inhibitors used for transport assays are summarized in S3 Table.
For accumulation assays (performed for all transporters, excepted BCRP), transporter-expressing cells usually cultured in 48-well plates were first incubated at 37°C with reference substrates in the absence (control) or presence of pyrethroids or reference inhibitors, in a well-defined transport assay medium, consisting of 136 mM NaCl, 5.3 mM KCl, 1.1mM KH2PO4, 0.8 mM MgSO4, 1.8 mM CaCl2, 10 mM HEPES, 11 mM D-glucose and adjusted to pH = 7.4 (excepted for MATE transporter assays, for which pH was set to 8.4). The nature of substrates and reference inhibitors and the incubation times with substrates, that varied according to the transporter, were selected in agreement with previous studies and are indicated in S3 Table. The total incubation volume with substrates was 200 μL/well. After washing twice in phosphate-buffered saline (PBS) (200 μL/well/washing), cells were lysed in distilled water (155 μL/well). An aliquot of cell lysate (5 μL) was then taken for determining cellular protein content by the Bradford method. The rest of lysate (150 μL/well) was used for measuring intracellular accumulation of reference substrates by scintillation counting or spectrofluorimetry using a SpectraMax Gemini SX spectrofluorometer (Molecular Devices, Sunnyvale, CA, USA) (excitation and emission wavelengths were 485 and 535 nm, respectively, for rhodamine 123 and fluorescein, and 355 and 460 nm, respectively, for DAPI).
(§2) Intracellular concentrations of reference substrates were initially expressed as fluorescence arbitrary units (for fluorescent dye substrates) or as moles (for radiolabeled substrates) and normalized to cellular protein content, determined by the Bradford method. They were finally used for calculating percentage of transporter activity, according to the following equations [41, 45]: %ABCtransporter activity=([Substrateref inh]-[Substratepyrethroid])×100/([Substrateref inh]-[Substratecontrol]) (1) %SLC transporter activity=([Substratepyrethroid]-[Substratref inh])×100/([Substratecontrol]-[Substrateref inh]) (2) with [Substratepyrethroid] = cellular concentration of reference substrate in the presence of pyrethroid, [Substrateref inh] = cellular concentration of reference substrate in the presence of reference inhibitor and [Substratecontrol] = cellular concentration of reference substrate in control cells not exposed to pyrethroid or reference inhibitor.
(§3) The initial tested concentration of pyrethroids was 100 μM. […] Such concentrations were calculated using GraphPad Prism software (GraphPad Software, La Jolla, CA), through nonlinear regression based on the four parameter logistic function using the following equations: […]

OCT1 = molecular target: T1, OCT1 (Homo sapiens, UniProt O15245); assay: OCT1 activity: DAPI accumulation in HEK-OCT1 cells; details: for inhibition at 100 μM: human, pH 7.4
T1 sequence (O15245 1-554): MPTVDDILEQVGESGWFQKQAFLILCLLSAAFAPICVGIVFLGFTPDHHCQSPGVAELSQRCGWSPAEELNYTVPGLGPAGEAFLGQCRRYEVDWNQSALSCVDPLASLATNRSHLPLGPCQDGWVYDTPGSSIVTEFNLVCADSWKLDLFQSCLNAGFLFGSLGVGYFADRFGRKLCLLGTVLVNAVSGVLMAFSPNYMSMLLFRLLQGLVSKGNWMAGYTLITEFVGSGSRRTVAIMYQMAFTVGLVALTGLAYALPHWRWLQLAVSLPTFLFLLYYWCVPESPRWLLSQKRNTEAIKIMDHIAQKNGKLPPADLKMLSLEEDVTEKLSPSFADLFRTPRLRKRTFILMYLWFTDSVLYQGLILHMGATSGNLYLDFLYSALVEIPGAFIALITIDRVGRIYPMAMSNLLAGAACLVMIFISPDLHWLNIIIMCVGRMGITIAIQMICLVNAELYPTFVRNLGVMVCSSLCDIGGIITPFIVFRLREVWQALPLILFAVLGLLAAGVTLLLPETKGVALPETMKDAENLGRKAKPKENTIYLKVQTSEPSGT
Procedure: as §1
The nature of substrates and reference inhibitors and the incubation times with substrates, that varied according to the transporter, were selected in agreement with previous studies and are indicated in S3 Table. The total incubation volume with substrates was 200 μL/well. […] An aliquot of cell lysate (5 μL) was then taken for determining cellular protein content by the Bradford method.
as §2, §3

OATP1B1 = molecular target: T2, OATP1B1 (Homo sapiens, UniProt Q9Y6L6); assay: OATP1B1 activity: E3S accumulation in CHO-OATP1B1 cells; type: cell-based; details: pyrethroid 100 μM; CHO-OATP1B1 cells, E3S
T2 construct: expressed in transfected cells; host or cells: CHO
T2 sequence (Q9Y6L6 1-691): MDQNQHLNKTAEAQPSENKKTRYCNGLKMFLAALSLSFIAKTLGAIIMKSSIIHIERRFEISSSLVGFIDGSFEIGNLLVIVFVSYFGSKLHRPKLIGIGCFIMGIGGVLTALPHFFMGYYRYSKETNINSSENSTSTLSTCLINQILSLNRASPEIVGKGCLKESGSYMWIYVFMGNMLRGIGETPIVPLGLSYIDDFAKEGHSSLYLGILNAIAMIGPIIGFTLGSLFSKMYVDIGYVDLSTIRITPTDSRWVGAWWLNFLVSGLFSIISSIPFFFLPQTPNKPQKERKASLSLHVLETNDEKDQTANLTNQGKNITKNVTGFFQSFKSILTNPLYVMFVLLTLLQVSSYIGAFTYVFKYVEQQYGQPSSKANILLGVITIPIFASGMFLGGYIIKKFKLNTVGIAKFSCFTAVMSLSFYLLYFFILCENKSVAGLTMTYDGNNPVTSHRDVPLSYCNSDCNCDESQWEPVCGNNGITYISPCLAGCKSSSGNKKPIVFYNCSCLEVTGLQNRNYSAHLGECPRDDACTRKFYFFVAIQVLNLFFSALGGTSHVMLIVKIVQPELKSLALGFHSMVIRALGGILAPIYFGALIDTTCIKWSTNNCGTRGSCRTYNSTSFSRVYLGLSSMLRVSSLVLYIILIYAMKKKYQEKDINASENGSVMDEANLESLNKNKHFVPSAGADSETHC
Procedure: (§4) The initial tested concentration of pyrethroids was 100 μM.

P-gp [4] = details: ref [26], [27]; cited from earlier work
BCRP ATPase activity = details: ref [28]; cited from earlier work
BCRP = molecular target: T3, BCRP (Homo sapiens, UniProt Q9UNQ0); assay: BCRP activity: Hoechst 33342 retention in HEK-BCRP cells; type: cell-based; details: pyrethroid 100 μM
T3 construct: expressed in transfected cells; host or cells: HEK293
T3 sequence (Q9UNQ0 1-655): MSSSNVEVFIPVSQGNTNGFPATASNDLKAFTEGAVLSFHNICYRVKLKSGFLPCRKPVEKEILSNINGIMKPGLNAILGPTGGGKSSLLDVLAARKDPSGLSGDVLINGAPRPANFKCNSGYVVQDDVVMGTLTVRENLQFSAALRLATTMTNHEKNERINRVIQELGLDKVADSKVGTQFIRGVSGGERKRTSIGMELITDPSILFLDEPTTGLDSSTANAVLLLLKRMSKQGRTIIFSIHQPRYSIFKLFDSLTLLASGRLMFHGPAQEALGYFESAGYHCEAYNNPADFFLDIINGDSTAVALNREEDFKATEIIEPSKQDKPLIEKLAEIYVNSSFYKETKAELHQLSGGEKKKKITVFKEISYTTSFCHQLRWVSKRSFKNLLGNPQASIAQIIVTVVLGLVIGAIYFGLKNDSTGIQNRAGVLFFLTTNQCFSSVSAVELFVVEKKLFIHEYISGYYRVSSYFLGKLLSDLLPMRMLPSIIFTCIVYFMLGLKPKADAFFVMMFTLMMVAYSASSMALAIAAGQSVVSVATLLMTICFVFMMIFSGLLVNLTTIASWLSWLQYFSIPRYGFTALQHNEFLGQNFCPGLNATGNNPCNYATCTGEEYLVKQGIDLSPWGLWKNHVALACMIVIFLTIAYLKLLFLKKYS
Procedure: For retention assay (used for BCRP activity), HEK-BCRP cells cultured in 48-well plates were first loaded at 37°C with transport assay (200 μL/well) containing 16.2 μM Hoechst 33342 for 30 min. After washing twice in PBS (200 μL/well/washing), cells were reincubated in Hoechst 33342-free transport assay medium (200 μL/well) at 37°C for 90 min in the absence or presence of pyrethroids or of the BCRP reference inhibitor fumitremorgin C used at 10 μM. Cells were next lysed in distilled water (155 μL/well) after washing twice in PBS (200 μL/well/washing). The cell lysate was finally used for determining cellular protein content and intracellular retention of Hoechst 33342 (by spectrofluorimetry: excitation and emission wavelengths were 355 and 460 nm, respectively), as described above.
as §4

P-gp (Homo sapiens, UniProt P08183), sequence (P08183 whole entry): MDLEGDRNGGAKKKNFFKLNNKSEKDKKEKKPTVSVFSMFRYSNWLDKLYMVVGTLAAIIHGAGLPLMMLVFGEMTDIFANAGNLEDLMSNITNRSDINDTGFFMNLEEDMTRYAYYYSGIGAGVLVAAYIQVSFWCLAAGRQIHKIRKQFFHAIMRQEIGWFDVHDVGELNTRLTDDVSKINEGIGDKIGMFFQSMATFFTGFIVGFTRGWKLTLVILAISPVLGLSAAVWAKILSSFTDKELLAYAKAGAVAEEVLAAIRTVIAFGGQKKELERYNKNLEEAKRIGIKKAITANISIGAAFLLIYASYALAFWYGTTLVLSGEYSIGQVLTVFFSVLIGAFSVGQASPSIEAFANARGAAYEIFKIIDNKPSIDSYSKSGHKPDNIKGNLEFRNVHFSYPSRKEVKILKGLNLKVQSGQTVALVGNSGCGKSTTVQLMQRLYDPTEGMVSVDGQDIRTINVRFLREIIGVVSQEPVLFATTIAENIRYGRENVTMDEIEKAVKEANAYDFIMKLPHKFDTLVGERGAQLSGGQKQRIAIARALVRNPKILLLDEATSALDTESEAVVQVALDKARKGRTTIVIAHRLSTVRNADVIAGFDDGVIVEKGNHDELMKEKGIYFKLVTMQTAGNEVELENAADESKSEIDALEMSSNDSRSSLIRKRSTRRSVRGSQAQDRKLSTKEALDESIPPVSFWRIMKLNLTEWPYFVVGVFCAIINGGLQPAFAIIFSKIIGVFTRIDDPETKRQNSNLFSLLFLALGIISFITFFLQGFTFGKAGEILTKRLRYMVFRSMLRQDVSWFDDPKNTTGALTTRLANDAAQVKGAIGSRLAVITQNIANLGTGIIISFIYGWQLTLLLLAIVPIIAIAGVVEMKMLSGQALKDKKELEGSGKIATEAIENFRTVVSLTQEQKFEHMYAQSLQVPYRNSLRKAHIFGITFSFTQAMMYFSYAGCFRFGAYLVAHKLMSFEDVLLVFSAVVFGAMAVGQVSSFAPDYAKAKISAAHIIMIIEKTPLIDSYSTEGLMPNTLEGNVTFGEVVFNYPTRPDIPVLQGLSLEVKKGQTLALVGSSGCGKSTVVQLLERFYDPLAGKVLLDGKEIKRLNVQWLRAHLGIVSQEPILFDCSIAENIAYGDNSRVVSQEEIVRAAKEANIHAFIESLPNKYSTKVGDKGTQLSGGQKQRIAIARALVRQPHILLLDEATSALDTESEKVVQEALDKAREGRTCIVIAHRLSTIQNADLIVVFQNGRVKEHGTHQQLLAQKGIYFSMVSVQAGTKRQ

| SMILES | efflux by P-gp (P-gp [1]) | blood concentration [2] | effect on P-gp activity (P-gp [3]) | inhibition at 100 μM (OCT1) [%] | inhibition of OATP1B1 activity (OATP1B1) | effect on P-gp activity or ATPase activity (P-gp [4]) | effect on OCT1 activity (OCT1; pyrethroid 100 μM, DAPI) | effect on BCRP ATPase activity (BCRP ATPase activity) | effect on BCRP activity (BCRP) |
| --- | --- | --- | --- | --- | --- | --- | --- | --- | --- |
| CC1(C)[C@H](C(=O)O[C@H](C#N)c2cccc(Oc3ccccc3)c2)[C@@H]1C=C(Br)Br [deltamethrin] | not effluxed by P-gp | < 5 μg/L and < 12.8 nM | did not inhibit | 30.1 to 48.8 | – | – | – | – | – |
| CC(C)[C@H](C(=O)O[C@H](C#N)c1cccc(Oc2ccccc2)c1)c1ccc(Cl)cc1 [esfenvalerate] | – | – | did not alter | – | less than 50% | inhibit | failed to significantly alter | – | – |
| CC1(C)C(C=C(Cl)Cl)C1C(=O)OCc1cccc(Oc2ccccc2)c1 (stereo not shown) [permethrin] | – | < 5 μg/L and < 12.8 nM | did not alter | – | – | inhibit | – | blocked; also recorded: inhibited | without inhibiting |
| CC(C)=CC1C(C(=O)OCc2coc(Cc3ccccc3)c2)C1(C)C (stereo not shown) [resmethrin] | – | – | – | 48.8 | – | – | – | inhibited | without inhibiting |
